Counter-ions that a name gives are not always drawn.
What follows are molecules tested on FL-SMN mRNA (SMN transcript containing exons 7 and 8) (assay: Live-cell assay to measure changes in FL-SMN mRNA levels (qPCR) after exposure to the compounds). Settings: fibroblasts derived from patients SMA (GM03813); 24 hours incubation.
Type: cell-based, human
Method in brief: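 SMA patient fibroblasts (GM03813) in DMEM/10% FBS were treated with compound (0.1% DMSO final) for 24 h. FL-SMN and Δ7 mRNA were measured by RT-qPCR against oligo DNA standard curves and normalised to GAPDH. Values are % of the DMSO control, binned by asterisk from ≥100% to ≥180%.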

| Structure (SMILES) | Percentage of increase (FL-SMN mRNA standardized against GAPDH, DMSO control set as 100%) |
| --- | --- |
| Cc1cn2nc(-c3nc4ccc(N5CCN6CCC[C@H]6C5)cc4c(=O)[nH]3)cc2c(C)n1 [Example 121, (S)-2-(4,6-dimethylpyrazolo[1,5-a]pyrazin-2-yl)-6-(hexahydropyrrolo[1,2-a]pyrazin-2(1H)-yl)quinazolin-4(3H)-one bistrifluoroacetate] | **** (equal to or higher than 180%) |
| Cc1cn2cc(-c3ccc4c(c3)c(=O)nc(C3CCN(C)CC3)n4C)ccc2n1 [Example 70, 1-methyl-6-(2-methylimidazo[1,2-a]pyridin-6-yl)-2-(1-methylpiperidin-4-yl)quinazolin-4(1H)-one] | * (equal to or higher than 100% but lower than 120%) |
| Cc1cn2nc(-c3nc4ccc(C5CCN(C)CC5)c(F)c4c(=O)[nH]3)cc2c(C)n1 [Example 4, 2-(4,6-Dimethylpyrazolo[1,5-α]pyrazin-2-yl)-5-fluoro-6-(1-methylpiperidin-4-yl)quinazolin-4(3H)-one] | **** (equal to or higher than 180%) |
| COCCN1CCN(c2ccc3nc(-c4cc5c(C)nc(C)cn5n4)[nH]c(=O)c3c2)CC1 [Example 82, 2-(4,6-dimethylpyrazolo[1,5-a]pyrazin-2-yl)-6-[4-(2-methoxyethyl)piperazin-1-yl]quinazolin-4(3H)-one] | ** (equal to or higher than 120% but lower than 150%) |
| Cc1nc2ccc(-c3cc(F)c4nc(C5CCN(C6CC6)CC5)[nH]c(=O)c4c3)cc2o1 [Example 31, 2-(1-cyclopropylpiperidin-4-yl)-8-fluoro-6-(2-methyl-1,3-benzoxazol-6-yl)quinazolin-4(3H)-one] | **** (equal to or higher than 180%) |
| Cc1cn2cc(-c3ccc4nc(C5CCN(C)CC5)[nH]c(=O)c4c3C)ccc2n1 [Example 60, 5-methyl-6-(2-methylimidazo[1,2-a]pyridin-6-yl)-2-(1-methylpiperidin-4-yl)quinazolin-4(3H)-one] | ** (equal to or higher than 120% but lower than 150%) |
| Cc1cn2nc(-c3nc4ccc(N5CCN6CCCCC6C5)cc4c(=O)[nH]3)cc2c(C)n1 (stereo not shown) [Example 125, 2-(4,6-dimethylpyrazolo[1,5-a]pyrazin-2-yl)-6-(octahydro-2H-pyrido[1,2-a]pyrazin-2-yl)quinazolin-4(3H)-one (distomer)] | ** (equal to or higher than 120% but lower than 150%) |
| COCCN1CCC(c2nc3cnc(-c4cc(F)c5nc(C)oc5c4)cc3c(=O)[nH]2)CC1 [Example 113, 6-(4-fluoro-2-methyl-1,3-benzoxazol-6-yl)-2-[1-(2-methoxyethyl)piperidin-4-yl]pyrido[3,4-d]pyrimidin-4(3H)-one] | **** (equal to or higher than 180%) |
| Cc1cn2cc(-c3cc4c(=O)[nH]c(C5(F)CCN(C)CC5)nc4cn3)cc(F)c2n1 [Example 108, 2-(4-fluoro-1-methylpiperidin-4-yl)-6-(8-fluoro-2-methylimidazo[1,2-a]pyridin-6-yl)pyrido[3,4-d]pyrimidin-4(3H)-one] | ** (equal to or higher than 120% but lower than 150%) |
| Cc1cn2cc(-c3ccc4nc(C5CCN(CC(F)(F)F)CC5)[nH]c(=O)c4c3)ccc2n1 [Example 73, 6-(2-methylimidazo[1,2-a]pyridin-6-yl)-2-[1-(2,2,2-trifluoroethyl)piperidin-4-yl]quinazolin-4(3H)-one] | * (equal to or higher than 100% but lower than 120%) |
| Cc1cn2cc(-c3ccc4nc(C5CCN(C)CC5)[nH]c(=O)c4c3)cc2c(C)n1 [Example 20, 6-(1,3-Dimethylpyrrolo[1,2-α]pyrazin-7-yl)-2-(1-methylpiperidin-4-yl)quinazolin-4(3H)-one] | **** (equal to or higher than 180%) |
| CCN1CCN(c2ccc3nc(-c4cc5c(C)nc(C)cn5n4)[nH]c(=O)c3c2)CC1 [Example 12, 2-(4,6-Dimethylpyrazolo[1,5-a]pyrazin-2-yl)-6-(4-ethylpiperazin-1-yl)quinazolin-4(3H)-one] | **** (equal to or higher than 180%) |
| Cc1cn2nc(-c3nc4ccc(N5CCNC6(CC6)C5)cc4c(=O)[nH]3)cc2c(C)n1 [Example 123, 2-(4,6-dimethylpyrazolo[1,5-a]pyrazin-2-yl)-6-(4,7-diazaspiro[2.5Joctan-7-yl)quinazolin-4(3H)-one bistrifluoroacetate] | **** (equal to or higher than 180%) |
| Cc1cn2nc(-c3nc4ccc(N5CCN(C6CC6)CC5)cc4c(=O)[nH]3)cc2cn1 [Example 116, 6-(4-cyclopropylpiperazin-1-yl)-2-(6-methylpyrazolo[1,5-a]pyrazin-2-yl)quinazolin-4(3H)-one] | **** (equal to or higher than 180%) |
| CCN1CCC(F)(c2nc3c(C)cc(-c4cc(F)c5nc(C)cn5c4)cc3c(=O)[nH]2)CC1 [Example 90, 2-(1-ethyl-4-fluoropiperidin-4-yl)-6-(8-fluoro-2-methylimidazo[1,2-a]pyridin-6-yl)-8-methylquinazolin-4(3H4)-one] | **** (equal to or higher than 180%) |
| Cc1cn2cc(-c3nc4ccc(N5CCN(C)CC5)cc4c(=O)[nH]3)cc(F)c2n1 [Example 53, 2-(8-fluoro-2-methylimidazo[1,2-a]pyridin-6-yl)-6-(4-methylpiperazin-1-yl)quinazolin-4(3H)-one] | ** (equal to or higher than 120% but lower than 150%) |
| Cc1cn2cc(-c3cc4c(=O)[nH]c(C5(F)CCN(C6CC6)CC5)nc4cn3)cc(F)c2n1 [Example 104, 2-(1-cyclopropyl-4-fluoropiperidin-4-yl)-6-(8-fluoro-2-methylimidazo[1,2-a]pyridin-6-yl)pyrido[3,4-d]pyrimidin-4(3H)-one] | *** (equal to or higher than 150% but lower than 180%) |
| CCN1CCC(F)(c2nc3c(F)cc(-c4cc(F)c5nc(C)cn5c4)cc3c(=O)[nH]2)CC1 [Example 98, 2-(1-ethyl-4-fluoropiperidin-4-yl)-8-fluoro-6-(8-fluoro-2-methylimidazo[1,2-a]pyridin-6-yl)quinazolin-4(3H)-one] | **** (equal to or higher than 180%) |
| Cc1cn2cc(-c3ccc4nc(C5CCN(C6CC6)CC5)[nH]c(=O)c4c3)cc2cn1 [Example 32, 2-(1-cyclopropylpiperidin-4-yl)-6-(3-methylpyrrolo[1,2-a]pyrazin-7-yl)quinazolin-4(3H)-one] | **** (equal to or higher than 180%) |
| Cc1cn2cc(-c3ccc4nc(C5CCOCC5)[nH]c(=O)c4c3)ccc2n1 [Example 81, 6-(2-methylimidazo[1,2-a]pyridin-6-yl)-2-(tetrahydro-2H4-pyran-4-yl)quinazolin-4(3H)-one] | * (equal to or higher than 100% but lower than 120%) |
| Cc1cn2c(C)c(-c3ccc4nc(C5CCN(C)CC5)[nH]c(=O)c4c3)ccc2n1 [Example 61, 6-(2,5-dimethylimidazo[1,2-a]pyridin-6-yl)-2-(1-methylpiperidin-4-yl)quinazolin-4(3H)-one] | * (equal to or higher than 100% but lower than 120%) |
| Cc1cn2nc(-c3nc4ccc(N5CCNCC5)cc4c(=O)[nH]3)cc2c(C)n1 [Example 16, 2-(4,6-Dimethylpyrazolo[1,5-α]pyrazin-2-yl)-6-(piperazin-1-yl)quinazolin-4(3H)-one dihydrochloride] | **** (equal to or higher than 180%) |
| CCN1CCC(F)(c2nc3c(F)cc(-c4ccc5nc(C)cn5c4)cc3c(=O)[nH]2)CC1 [Example 95, 2-(1-ethyl-4-fluoropiperidin-4-yl)-8-fluoro-6-(2-methylimidazo[1,2-a]pyridin-6-yl)quinazolin-4(3H)-one] | *** (equal to or higher than 150% but lower than 180%) |
| Cc1nc2c(F)cc(-c3ccc4c(=O)n(C5CCN(C)CC5)cnc4c3)cc2o1 [Example 29, 7-(4-fluoro-2-methyl-1,3-benzoxazol-6-yl)-3-(1-methylpiperidin-4-yl)quinazolin-4(3H)-one] | **** (equal to or higher than 180%) |
| Cc1cn2cc(-c3cc(F)c4nc(C5(F)CCN(C(C)C)CC5)[nH]c(=O)c4c3)ccc2n1 [Example 96, 8-fluoro-2-(4-fluoro-1-isopropylpiperidin-4-yl)-6-(2-methylimidazo[1,2-a]pyridin-6-yl)quinazolin-4(3H)-one] | *** (equal to or higher than 150% but lower than 180%) |
| Cc1nc2c(F)cc(-c3cc(F)c4nc(C5CCN(C)CC5)[nH]c(=O)c4c3)cc2o1 [Example 24, 8-Fluoro-6-(4-fluoro-2-methyl-1,3-benzoxazole 6-yl)-2-(1-methylpiperidin-4-yl) quinazoline 4-(3H)-one] | **** (equal to or higher than 180%) |
| Cc1cn2cc(-c3cc(C)c4nc(C5CCN(C6CC6)CC5)[nH]c(=O)c4c3)cc(F)c2n1 [Example 40, 2-(1-cyclopropylpiperidin-4-yl)-6-(8-fluoro-2-methylimidazo[1,2-a]pyridin-6-yl)-8-methylquinazolin-4(3H)-one] | **** (equal to or higher than 180%) |
| Cc1nc(C)c2cc(-c3nc4ccc(N5CCN(C)CC5)cc4c(=O)[nH]3)nn2c1C [Example 54, 6-(4-methylpiperazin-1 - yl)-2-(4,6,7-trimethylpyrazolo[1,5-a]pyrazin-2-yl)quinazolin-4(3H)-one] | * (equal to or higher than 100% but lower than 120%) |

Reference: US12012410B2, “Substituted pyrazolo[1,5-a]pyrazines for spinal muscular atrophy” (REBORNA BIOSCIENCES, INC., priority 2018, dated 2024)
